The NIST ThermoML archive (doi:10.1021/je800203s)

Key:
[1] = Molar enthalpy of transition or fusion; settings: Crystal
[2] = Crystal
[3] = molar heat capacity at constant pressure; settings: 101.33 kPa

COc1ccc(CC#N)cc1OC [(3,4-dimethoxyphenyl)acetonitrile]
Settings	Molar enthalpy of transition or fusion [kJ/mol]	Triple point temperature [K]
[1]	24.7	–
[2]	–	337.08

[3]
Settings	molar heat capacity at constant pressure [J/K/mol]
78.32 K, Crystal	80.52
80 K, Crystal	82.15
81.06 K, Crystal	82.37
84.38 K, Crystal	84.71
85 K, Crystal	85.39
87.3 K, Crystal	87.42
90 K, Crystal	88.81
90.17 K, Crystal	89.84
93.05 K, Crystal	91.31
95 K, Crystal	92.41
95.92 K, Crystal	93.07
98.78 K, Crystal	94.96
100 K, Crystal	96.15
102.8 K, Crystal	97.78
105 K, Crystal	100
106.79 K, Crystal	101.8
109.62 K, Crystal	103.7
110 K, Crystal	104
112.5 K, Crystal	106.5
115 K, Crystal	108
115.38 K, Crystal	108.6
118.25 K, Crystal	111
120 K, Crystal	112.1
121.12 K, Crystal	113.3
123.99 K, Crystal	115.6
125 K, Crystal	116.3
126.87 K, Crystal	118
129.71 K, Crystal	120.3
130 K, Crystal	120.4
132.55 K, Crystal	122.1
135 K, Crystal	124.6
135.4 K, Crystal	124.9
138.26 K, Crystal	127.8
140 K, Crystal	128.8
141.12 K, Crystal	129.7
143.94 K, Crystal	131.8
145 K, Crystal	133
146.78 K, Crystal	134.2
149.62 K, Crystal	136.7
150 K, Crystal	137.1
153.27 K, Crystal	139.5
155 K, Crystal	141.2
156.88 K, Crystal	142.9
159.69 K, Crystal	144.6
160 K, Crystal	145.3
162.54 K, Crystal	146.5
165 K, Crystal	149.3
165.37 K, Crystal	148.6
168.16 K, Crystal	151.4
170 K, Crystal	153.3
170.93 K, Crystal	153.9
173.78 K, Crystal	156.3
175 K, Crystal	157.2
176.63 K, Crystal	157.8
179.46 K, Crystal	159.5
180 K, Crystal	161
182.27 K, Crystal	162.3
185 K, Crystal	164.7
185.06 K, Crystal	164.3
187.83 K, Crystal	167.4
190 K, Crystal	168.4
190.65 K, Crystal	168.8
195 K, Crystal	172
196.37 K, Crystal	174.3
199.23 K, Crystal	175.5
200 K, Crystal	175.6
202.71 K, Crystal	177.3
205 K, Crystal	179
206.12 K, Crystal	180.1
208.91 K, Crystal	182.6
210 K, Crystal	182.5
211.79 K, Crystal	184.7
214.67 K, Crystal	185.5
215 K, Crystal	185.8
217.53 K, Crystal	187.8
220 K, Crystal	189.1
220.39 K, Crystal	189.8
223.24 K, Crystal	192.6
225 K, Crystal	192.4
226.07 K, Crystal	194.1
228.97 K, Crystal	196
230 K, Crystal	195.6
231.92 K, Crystal	198.1
234.86 K, Crystal	200.2
235 K, Crystal	198.8
237.82 K, Crystal	201.4
240 K, Crystal	202
240.78 K, Crystal	203
244.26 K, Crystal	204.7
245 K, Crystal	205.2
247.72 K, Crystal	206
250 K, Crystal	208.4
250.62 K, Crystal	206.7
253.5 K, Crystal	208.8
255 K, Crystal	211.6
256.38 K, Crystal	210.7
259.24 K, Crystal	213.1
260 K, Crystal	214.9
262.1 K, Crystal	214.8
264.94 K, Crystal	216.4
265 K, Crystal	218.2
267.89 K, Crystal	218.3
270 K, Crystal	221.6
270.93 K, Crystal	221.1
273.96 K, Crystal	223.6
275 K, Crystal	225.2
276.98 K, Crystal	226.3
279.99 K, Crystal	228.9
280 K, Crystal	228.8
283 K, Crystal	231.4
285 K, Crystal	232.6
285.98 K, Crystal	234.1
288.95 K, Crystal	236.8
290 K, Crystal	236.6
291.89 K, Crystal	239.8
294.78 K, Crystal	242.2
295 K, Crystal	240.8
297.68 K, Crystal	245.2
298.15 K, Crystal	243.5
300 K, Crystal	245.2
300.71 K, Crystal	247.1
303.68 K, Crystal	250.1
305 K, Crystal	249.8
306.62 K, Crystal	252.2
309.56 K, Crystal	254.2
310 K, Crystal	254.8
312.48 K, Crystal	256
315 K, Crystal	260
315.49 K, Crystal	259.8
318.59 K, Crystal	261.9
320 K, Crystal	265.6
321.66 K, Crystal	267
324.72 K, Crystal	275
327.73 K, Crystal	284.8
330.67 K, Crystal	313
340 K, Liquid	350.5
342.04 K, Liquid	352
345 K, Liquid	353.2
345.02 K, Liquid	352.7
348.08 K, Liquid	354.6
350 K, Liquid	356
351.14 K, Liquid	356.8
354.19 K, Liquid	358.7
355 K, Liquid	358.7
357.24 K, Liquid	360.1
360 K, Liquid	361.4
360.28 K, Liquid	361.3
363.32 K, Liquid	362.6
365 K, Liquid	363.9
366.35 K, Liquid	364.4
369.38 K, Liquid	366.3
370 K, Liquid	366.3
372.4 K, Liquid	367.9
375 K, Liquid	368.7
375.42 K, Liquid	368.7
378.43 K, Liquid	370.1
380 K, Liquid	371
381.44 K, Liquid	371.6
384.44 K, Liquid	373
385 K, Liquid	373.3
387.44 K, Liquid	374.5
390 K, Liquid	375.7
390.43 K, Liquid	376.1
393.41 K, Liquid	377.4
395 K, Liquid	378.4
396.39 K, Liquid	379.4
399.38 K, Liquid	380.9
400 K, Liquid	381.5
